Test results as given in publication PMC11842588, “A first-in-class selective inhibitor of ERK1/2 and ERK5 overcomes drug resistance with a single-molecule strategy” (Signal Transduction and Targeted Therapy, 2025).

Legend:
Assay in all cases: Kinase profiling
Assay type in all cases: biochemical
IKKε(h) = molecular target: T1, IKKε(h) (Homo sapiens, UniProt Q14164)
T1 construct: purchased Eurofins Cerep SA (KinaseProfiler)
Description: (§1) 380 kinases inhibitory activities of SKLB-D18 were conducted by Eurofins Cerep SA. The result was illustrated by kinase tree (http://www.kinhub.org/kinmap/).

ULK1(h) = molecular target: T2, ULK1(h) (Homo sapiens, UniProt O75385)
T2 construct: purchased Eurofins Cerep SA (KinaseProfiler)
Description: as §1

PEK(h) = molecular target: T3, PEK(h) (Homo sapiens, UniProt Q9NZJ5)
T3 construct: purchased Eurofins Cerep SA (KinaseProfiler)
Description: as §1

CDK3/cyclinE(h) = molecular target: T4, CDK3/cyclinE(h) (Homo sapiens, UniProt Q00526)
T4 construct: purchased Eurofins Cerep SA (KinaseProfiler)
Description: as §1

PhKγ2(h) = molecular target: T5, PhKγ2(h) (Homo sapiens, UniProt P15735)
T5 construct: purchased Eurofins Cerep SA (KinaseProfiler)
Description: as §1

WNK2(h) = molecular target: T6, WNK2(h) (Homo sapiens, UniProt Q9Y3S1)
T6 construct: purchased Eurofins Cerep SA (KinaseProfiler)
Description: as §1

PKCθ(h) = molecular target: T7, PKCθ(h) (Homo sapiens, UniProt Q04759)
T7 construct: purchased Eurofins Cerep SA (KinaseProfiler)
Description: as §1

Hck(h) = molecular target: T8, Hck(h) (Homo sapiens, UniProt P08631)
T8 construct: purchased Eurofins Cerep SA (KinaseProfiler)
Description: as §1

LATS2(h) = molecular target: T9, LATS2(h) (Homo sapiens, UniProt Q9NRM7)
T9 construct: purchased Eurofins Cerep SA (KinaseProfiler)
Description: as §1

PAK3(h) = molecular target: T10, PAK3(h) (Homo sapiens, UniProt O75914)
T10 construct: purchased Eurofins Cerep SA (KinaseProfiler)
Description: as §1

Fgr(h) = molecular target: T11, Fgr(h) (Homo sapiens, UniProt P09769)
T11 construct: purchased Eurofins Cerep SA (KinaseProfiler)
Description: as §1

PI3 Kinase (p120g)(h) = molecular target: T12, PI3 Kinase (p120g)(h) (Homo sapiens, UniProt P48736)
T12 construct: purchased Eurofins Cerep SA (KinaseProfiler)
Description: as §1

JAK1(h) = molecular target: T13, JAK1(h) (Homo sapiens, UniProt P23458)
T13 construct: purchased Eurofins Cerep SA (KinaseProfiler)
Description: as §1

NEK2(h) = molecular target: T14, NEK2(h) (Homo sapiens, UniProt P51955)
T14 construct: purchased Eurofins Cerep SA (KinaseProfiler)
T14 sequence (P51955 whole entry): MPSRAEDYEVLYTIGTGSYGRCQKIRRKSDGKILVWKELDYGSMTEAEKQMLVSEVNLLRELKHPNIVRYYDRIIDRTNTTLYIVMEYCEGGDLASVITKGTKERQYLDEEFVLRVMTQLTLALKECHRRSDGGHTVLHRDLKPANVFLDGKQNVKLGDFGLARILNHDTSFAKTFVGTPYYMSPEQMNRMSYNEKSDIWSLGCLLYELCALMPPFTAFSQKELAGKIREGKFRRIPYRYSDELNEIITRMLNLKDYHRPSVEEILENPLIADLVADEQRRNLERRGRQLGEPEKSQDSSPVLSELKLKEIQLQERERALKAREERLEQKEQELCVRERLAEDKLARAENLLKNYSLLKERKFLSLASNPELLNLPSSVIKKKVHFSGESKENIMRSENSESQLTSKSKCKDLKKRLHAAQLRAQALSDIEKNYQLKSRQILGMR
Description: as §1

GRK4(h) = molecular target: T15, GRK4(h) (Homo sapiens, UniProt P32298)
T15 construct: purchased Eurofins Cerep SA (KinaseProfiler)
Description: as §1

[1] = molecular target: T16, PI3 Kinase (p110b/p85a)(h) (Homo sapiens, UniProt P42338)
T16 construct: purchased Eurofins Cerep SA (KinaseProfiler)
Description: as §1

FAK(h) = molecular target: T17, FAK(h) (Homo sapiens, UniProt Q05397)
T17 construct: purchased Eurofins Cerep SA (KinaseProfiler)
Description: as §1

EphA1(h) = molecular target: T18, EphA1(h) (Homo sapiens, UniProt P21709)
T18 construct: purchased Eurofins Cerep SA (KinaseProfiler)
Description: as §1

MEKK3(h) = molecular target: T19, MEKK3(h) (Homo sapiens, UniProt Q99759)
T19 construct: purchased Eurofins Cerep SA (KinaseProfiler)
Description: as §1

Tie2 (h) = molecular target: T20, Tie2 (h) (Homo sapiens, UniProt Q02763)
T20 construct: purchased Eurofins Cerep SA (KinaseProfiler)
Description: as §1

[2] = molecular target: T21, PI3 Kinase (p110d/p85a)(h) (Homo sapiens, UniProt O00329)
T21 construct: purchased Eurofins Cerep SA (KinaseProfiler)
Description: as §1

VRK1(h) = molecular target: T22, VRK1(h) (Homo sapiens, UniProt Q99986)
T22 construct: purchased Eurofins Cerep SA (KinaseProfiler)
T22 sequence (Q99986 whole entry): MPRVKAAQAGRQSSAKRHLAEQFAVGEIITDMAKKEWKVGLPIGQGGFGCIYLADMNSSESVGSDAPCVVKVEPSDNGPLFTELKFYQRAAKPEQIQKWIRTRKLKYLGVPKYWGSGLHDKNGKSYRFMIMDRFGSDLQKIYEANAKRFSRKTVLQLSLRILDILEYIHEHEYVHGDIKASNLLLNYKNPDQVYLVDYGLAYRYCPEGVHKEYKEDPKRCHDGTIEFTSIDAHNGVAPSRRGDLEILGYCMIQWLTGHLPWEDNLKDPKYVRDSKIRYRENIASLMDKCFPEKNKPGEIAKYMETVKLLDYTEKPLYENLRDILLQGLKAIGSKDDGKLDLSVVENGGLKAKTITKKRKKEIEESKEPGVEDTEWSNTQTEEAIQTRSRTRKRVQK
Description: as §1

SRPK2(h) = molecular target: T23, SRPK2(h) (Homo sapiens, UniProt P78362)
T23 construct: purchased Eurofins Cerep SA (KinaseProfiler)
Description: as §1

TRB2(h) = molecular target: T24, TRB2(h) (Homo sapiens, UniProt Q92519)
T24 construct: purchased Eurofins Cerep SA (KinaseProfiler)
Description: as §1

MARK4(h) = molecular target: T25, MARK4(h) (Homo sapiens, UniProt Q96L34)
T25 construct: purchased Eurofins Cerep SA (KinaseProfiler)
Description: as §1

ALK2(h) = molecular target: T26, ALK2(h) (Homo sapiens, UniProt Q04771)
T26 construct: purchased Eurofins Cerep SA (KinaseProfiler)
Description: as §1

MRCKα(h) = molecular target: T27, MRCKα(h) (Homo sapiens, UniProt Q5VT25)
T27 construct: purchased Eurofins Cerep SA (KinaseProfiler)
Description: as §1

SGK(h) = molecular target: T28, SGK(h) (Homo sapiens, UniProt O00141)
T28 construct: purchased Eurofins Cerep SA (KinaseProfiler)
Description: as §1

TGFBR1(h) = molecular target: T29, TGFBR1(h) (Homo sapiens, UniProt P36897)
T29 construct: purchased Eurofins Cerep SA (KinaseProfiler)
T29 sequence (P36897 34-503): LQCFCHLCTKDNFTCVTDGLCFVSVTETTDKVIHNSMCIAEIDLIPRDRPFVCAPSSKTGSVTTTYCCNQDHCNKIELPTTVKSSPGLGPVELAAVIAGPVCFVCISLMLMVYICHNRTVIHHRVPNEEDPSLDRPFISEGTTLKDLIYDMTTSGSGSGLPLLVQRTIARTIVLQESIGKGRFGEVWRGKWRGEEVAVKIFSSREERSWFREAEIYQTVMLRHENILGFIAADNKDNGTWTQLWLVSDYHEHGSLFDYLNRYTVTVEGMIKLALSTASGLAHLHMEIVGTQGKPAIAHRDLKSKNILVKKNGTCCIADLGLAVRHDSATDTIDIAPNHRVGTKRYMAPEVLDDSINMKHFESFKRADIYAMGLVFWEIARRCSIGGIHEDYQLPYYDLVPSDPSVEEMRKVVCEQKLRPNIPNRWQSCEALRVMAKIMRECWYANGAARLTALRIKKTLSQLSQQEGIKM
Description: as §1

PKR(h) = molecular target: T30, PKR(h) (Homo sapiens, UniProt P19525)
T30 construct: purchased Eurofins Cerep SA (KinaseProfiler)
T30 sequence (P19525 whole entry): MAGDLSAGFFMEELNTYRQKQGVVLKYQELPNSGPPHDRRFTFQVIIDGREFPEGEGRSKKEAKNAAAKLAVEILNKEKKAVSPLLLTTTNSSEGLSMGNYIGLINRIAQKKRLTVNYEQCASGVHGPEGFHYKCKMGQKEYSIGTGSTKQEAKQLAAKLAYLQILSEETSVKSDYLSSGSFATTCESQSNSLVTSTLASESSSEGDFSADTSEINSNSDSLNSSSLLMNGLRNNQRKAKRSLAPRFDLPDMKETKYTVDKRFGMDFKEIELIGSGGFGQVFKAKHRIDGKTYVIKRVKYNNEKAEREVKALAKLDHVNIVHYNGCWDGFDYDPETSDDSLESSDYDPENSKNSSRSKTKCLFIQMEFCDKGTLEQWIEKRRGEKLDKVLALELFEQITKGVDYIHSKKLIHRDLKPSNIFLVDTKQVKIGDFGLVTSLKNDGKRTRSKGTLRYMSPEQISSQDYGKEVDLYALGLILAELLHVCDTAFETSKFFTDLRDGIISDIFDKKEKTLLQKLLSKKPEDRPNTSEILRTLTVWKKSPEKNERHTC
Description: as §1

Rse(h) = molecular target: T31, Rse(h) (Homo sapiens, UniProt Q06418)
T31 construct: purchased Eurofins Cerep SA (KinaseProfiler)
Description: as §1

HRI(h) = molecular target: T32, HRI(h) (Homo sapiens, UniProt Q9BQI3)
T32 construct: purchased Eurofins Cerep SA (KinaseProfiler)
T32 sequence (Q9BQI3 whole entry): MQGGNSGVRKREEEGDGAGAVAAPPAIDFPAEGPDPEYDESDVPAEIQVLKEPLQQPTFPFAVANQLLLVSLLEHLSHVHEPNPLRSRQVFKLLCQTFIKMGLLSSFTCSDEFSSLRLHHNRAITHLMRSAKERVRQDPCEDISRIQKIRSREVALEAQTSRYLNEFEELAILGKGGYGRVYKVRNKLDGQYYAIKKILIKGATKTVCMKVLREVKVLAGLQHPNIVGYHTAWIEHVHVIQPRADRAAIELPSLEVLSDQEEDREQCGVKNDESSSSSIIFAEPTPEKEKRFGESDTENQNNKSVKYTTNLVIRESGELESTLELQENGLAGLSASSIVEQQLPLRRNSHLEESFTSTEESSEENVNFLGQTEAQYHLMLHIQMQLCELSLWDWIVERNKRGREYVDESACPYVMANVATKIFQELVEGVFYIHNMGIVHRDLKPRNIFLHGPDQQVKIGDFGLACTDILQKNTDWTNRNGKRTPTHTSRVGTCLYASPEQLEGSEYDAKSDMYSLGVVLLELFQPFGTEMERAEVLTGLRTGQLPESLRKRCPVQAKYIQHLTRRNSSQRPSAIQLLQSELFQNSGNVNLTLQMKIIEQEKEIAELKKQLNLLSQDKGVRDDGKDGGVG
Description: as §1

MST3(h) = molecular target: T33, MST3(h) (Homo sapiens, UniProt Q9Y6E0)
T33 construct: purchased Eurofins Cerep SA (KinaseProfiler)
Description: as §1

EphA2(h) = molecular target: T34, EphA2(h) (Homo sapiens, UniProt P29317)
T34 construct: purchased Eurofins Cerep SA (KinaseProfiler)
Description: as §1

MAP4K4(h) = molecular target: T35, MAP4K4(h) (Homo sapiens, UniProt O95819)
T35 construct: purchased Eurofins Cerep SA (KinaseProfiler)
Description: as §1

Fms(h) = molecular target: T36, Fms(h) (Homo sapiens, UniProt P07333)
T36 construct: purchased Eurofins Cerep SA (KinaseProfiler)
T36 sequence (P07333 20-972): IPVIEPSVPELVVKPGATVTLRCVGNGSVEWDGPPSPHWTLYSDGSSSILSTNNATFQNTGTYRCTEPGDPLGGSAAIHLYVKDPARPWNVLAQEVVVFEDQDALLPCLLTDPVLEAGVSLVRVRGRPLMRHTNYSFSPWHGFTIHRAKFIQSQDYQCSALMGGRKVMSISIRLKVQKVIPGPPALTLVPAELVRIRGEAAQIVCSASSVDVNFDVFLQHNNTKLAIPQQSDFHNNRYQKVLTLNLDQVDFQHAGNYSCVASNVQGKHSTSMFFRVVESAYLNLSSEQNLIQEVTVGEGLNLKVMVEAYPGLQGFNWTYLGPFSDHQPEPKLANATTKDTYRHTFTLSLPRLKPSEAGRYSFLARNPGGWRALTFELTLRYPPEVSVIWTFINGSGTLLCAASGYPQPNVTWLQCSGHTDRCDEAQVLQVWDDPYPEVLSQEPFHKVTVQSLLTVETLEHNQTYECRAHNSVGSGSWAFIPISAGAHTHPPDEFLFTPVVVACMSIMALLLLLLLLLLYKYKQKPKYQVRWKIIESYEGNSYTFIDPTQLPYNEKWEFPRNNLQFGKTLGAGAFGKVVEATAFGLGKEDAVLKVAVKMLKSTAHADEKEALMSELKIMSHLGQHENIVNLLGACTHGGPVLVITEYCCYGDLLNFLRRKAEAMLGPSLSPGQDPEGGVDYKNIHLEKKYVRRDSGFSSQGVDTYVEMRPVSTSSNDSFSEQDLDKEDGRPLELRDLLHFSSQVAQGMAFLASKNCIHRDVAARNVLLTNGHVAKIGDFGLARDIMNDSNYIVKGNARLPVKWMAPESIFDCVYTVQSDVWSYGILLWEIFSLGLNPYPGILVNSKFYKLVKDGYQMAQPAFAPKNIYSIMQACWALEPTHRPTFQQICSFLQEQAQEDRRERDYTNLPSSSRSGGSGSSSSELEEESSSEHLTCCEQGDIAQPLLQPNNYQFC
Description: as §1

EGFR(h) = molecular target: T37, EGFR(h) (Homo sapiens, UniProt P00533)
T37 construct: purchased Eurofins Cerep SA (KinaseProfiler)
Description: as §1

TSSK1(h) = molecular target: T38, TSSK1(h) (Homo sapiens, UniProt Q9BXA7)
T38 construct: purchased Eurofins Cerep SA (KinaseProfiler)
Description: as §1

WNK3(h) = molecular target: T39, WNK3(h) (Homo sapiens, UniProt Q9BYP7)
T39 construct: purchased Eurofins Cerep SA (KinaseProfiler)
Description: as §1

IGF-1R(h) = molecular target: T40, IGF-1R(h) (Homo sapiens, UniProt P08069)
T40 construct: purchased Eurofins Cerep SA (KinaseProfiler)
T40 sequence (P08069 31-1367): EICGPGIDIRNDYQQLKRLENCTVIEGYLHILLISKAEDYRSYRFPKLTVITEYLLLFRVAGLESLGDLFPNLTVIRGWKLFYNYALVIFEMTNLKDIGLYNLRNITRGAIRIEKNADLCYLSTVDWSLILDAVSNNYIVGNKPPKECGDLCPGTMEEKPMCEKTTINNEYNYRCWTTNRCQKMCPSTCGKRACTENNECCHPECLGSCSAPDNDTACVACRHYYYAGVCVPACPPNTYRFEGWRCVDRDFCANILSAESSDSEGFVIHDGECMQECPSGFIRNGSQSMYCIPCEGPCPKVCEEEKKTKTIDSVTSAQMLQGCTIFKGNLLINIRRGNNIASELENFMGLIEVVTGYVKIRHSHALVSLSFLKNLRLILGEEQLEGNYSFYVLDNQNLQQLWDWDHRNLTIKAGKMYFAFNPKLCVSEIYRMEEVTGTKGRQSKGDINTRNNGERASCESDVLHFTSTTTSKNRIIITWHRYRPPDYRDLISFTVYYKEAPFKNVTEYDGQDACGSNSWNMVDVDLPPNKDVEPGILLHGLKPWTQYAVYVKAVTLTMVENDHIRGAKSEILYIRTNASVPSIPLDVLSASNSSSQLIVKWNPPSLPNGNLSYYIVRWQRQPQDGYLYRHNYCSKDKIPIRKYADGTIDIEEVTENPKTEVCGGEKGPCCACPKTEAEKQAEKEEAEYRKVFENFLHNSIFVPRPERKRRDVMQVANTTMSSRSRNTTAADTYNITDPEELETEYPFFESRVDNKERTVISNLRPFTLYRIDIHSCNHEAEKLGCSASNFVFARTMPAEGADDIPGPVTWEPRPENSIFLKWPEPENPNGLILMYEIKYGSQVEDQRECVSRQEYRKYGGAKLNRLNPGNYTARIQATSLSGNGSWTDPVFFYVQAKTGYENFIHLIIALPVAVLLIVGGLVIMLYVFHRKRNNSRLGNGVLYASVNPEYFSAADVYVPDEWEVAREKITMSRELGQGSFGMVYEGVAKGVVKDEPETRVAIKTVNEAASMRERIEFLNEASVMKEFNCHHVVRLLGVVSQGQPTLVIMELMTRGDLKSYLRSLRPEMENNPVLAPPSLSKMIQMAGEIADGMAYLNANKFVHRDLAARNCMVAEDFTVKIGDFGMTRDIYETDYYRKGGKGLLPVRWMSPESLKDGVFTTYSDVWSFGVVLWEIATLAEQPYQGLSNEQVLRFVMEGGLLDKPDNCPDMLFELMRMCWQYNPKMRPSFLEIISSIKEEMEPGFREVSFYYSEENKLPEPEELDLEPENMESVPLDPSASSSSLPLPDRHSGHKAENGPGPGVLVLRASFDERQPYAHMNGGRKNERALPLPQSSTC
Description: as §1

OSR1(h) = molecular target: T41, OSR1(h) (Homo sapiens, UniProt O95747)
T41 construct: purchased Eurofins Cerep SA (KinaseProfiler)
Description: as §1

CN(C)Cc1cccc(Nc2ncc(Cl)c(-c3csc(C(=O)NN4CCOCC4)c3)n2)c1 [SKLB-D18, 4-(5-chloro-2-((3-((dimethylamino)methyl)phenyl)amino)pyrimidin-4-yl)-N-morpholinothiophene-2-carboxamide]
inhibition at 1 µM (IKKε(h)): 64%
inhibition at 1 µM (ULK1(h)): 49%
inhibition at 1 µM (PEK(h)): 3%
inhibition at 1 µM (CDK3/cyclinE(h)): 16%
inhibition at 1 µM (PhKγ2(h)): 19%
inhibition at 1 µM (WNK2(h)): 24%
inhibition at 1 µM (PKCθ(h)): 7%
inhibition at 1 µM (Hck(h)): 20%
inhibition at 1 µM (LATS2(h)): 37%
inhibition at 1 µM (PAK3(h)): 27%
inhibition at 1 µM (Fgr(h)): 42%
inhibition at 1 µM (PI3 Kinase (p120g)(h)): 4%
inhibition at 1 µM (JAK1(h)): 59%
inhibition at 1 µM (NEK2(h)): 42%
inhibition at 1 µM (GRK4(h)): 16%
inhibition at 1 µM [1]: 8%
inhibition at 1 µM (FAK(h)): 17%
inhibition at 1 µM (EphA1(h)): 10%
inhibition at 1 µM (MEKK3(h)): 8%
inhibition at 1 µM (Tie2 (h)): 44%
inhibition at 1 µM [2]: 0%
inhibition at 1 µM (VRK1(h)): 16%
inhibition at 1 µM (SRPK2(h)): 9%
inhibition at 1 µM (TRB2(h)): 71%
inhibition at 1 µM (MARK4(h)): 64%
inhibition at 1 µM (ALK2(h)): 16%
inhibition at 1 µM (MRCKα(h)): 2%
inhibition at 1 µM (SGK(h)): 11%
inhibition at 1 µM (TGFBR1(h)): 20%
inhibition at 1 µM (PKR(h)): 26%
inhibition at 1 µM (Rse(h)): 12%
inhibition at 1 µM (HRI(h)): 38%
inhibition at 1 µM (MST3(h)): 19%
inhibition at 1 µM (EphA2(h)): 17%
inhibition at 1 µM (MAP4K4(h)): 14%
inhibition at 1 µM (Fms(h)): 34%
inhibition at 1 µM (EGFR(h)): -10%
inhibition at 1 µM (TSSK1(h)): 60%
inhibition at 1 µM (WNK3(h)): 9%
inhibition at 1 µM (IGF-1R(h)): 7%
inhibition at 1 µM (OSR1(h)): 28%
